Reference: publication PMC4434416, “Purification and biochemical characterization of a newly produced yellow laccase from Lentinus squarrosulus MR13” (3 Biotech, 2014)

Tested on: yellow laccase
Conditions: 35 °C; pH of the kinetic assay not stated; printed ABTS range 40–600 mM

Km: 71.4 µM
Compound: CCn1c(=NN=c2sc3cc(S(=O)(=O)O)ccc3n2CC)sc2cc(S(=O)(=O)O)ccc21 [ABTS, 2,2′-Azinobis-(3-ethylbenzothiazoline-6-sulfonic acid)]
